Assay results taken from publication PMC6370829, “NADP^+ is an endogenous PARP inhibitor in DNA damage response and tumor suppression” (Nature Communications, 2019).

Experiments:
[1] = target: T1, PARP1 (Homo sapiens, UniProt P09874); assay: ITC; also […]NADP+ pull-down binding and inhibition of auto-PARylation; parameters: catalytic domain (GST-PARP1 CAT, aa. 662–1014) for ITC
Target sequence in this assay (P09874 662-1014): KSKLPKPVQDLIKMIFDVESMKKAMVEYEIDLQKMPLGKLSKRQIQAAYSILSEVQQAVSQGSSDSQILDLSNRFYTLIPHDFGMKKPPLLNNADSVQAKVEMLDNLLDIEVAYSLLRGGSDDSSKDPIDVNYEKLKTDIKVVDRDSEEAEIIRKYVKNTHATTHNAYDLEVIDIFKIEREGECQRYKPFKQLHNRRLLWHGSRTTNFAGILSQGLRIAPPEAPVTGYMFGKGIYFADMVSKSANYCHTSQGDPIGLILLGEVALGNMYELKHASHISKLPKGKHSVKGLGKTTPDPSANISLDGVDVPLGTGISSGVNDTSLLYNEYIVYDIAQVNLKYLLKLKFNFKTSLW

[2] = target: T2, NADK (Homo sapiens, UniProt O95544); assay: recombinant enzyme reaction, product confirmed by mass spectrometry; format: biochemical
T2 construct: recombinant NADK
T2 sequence (O95544 1-446): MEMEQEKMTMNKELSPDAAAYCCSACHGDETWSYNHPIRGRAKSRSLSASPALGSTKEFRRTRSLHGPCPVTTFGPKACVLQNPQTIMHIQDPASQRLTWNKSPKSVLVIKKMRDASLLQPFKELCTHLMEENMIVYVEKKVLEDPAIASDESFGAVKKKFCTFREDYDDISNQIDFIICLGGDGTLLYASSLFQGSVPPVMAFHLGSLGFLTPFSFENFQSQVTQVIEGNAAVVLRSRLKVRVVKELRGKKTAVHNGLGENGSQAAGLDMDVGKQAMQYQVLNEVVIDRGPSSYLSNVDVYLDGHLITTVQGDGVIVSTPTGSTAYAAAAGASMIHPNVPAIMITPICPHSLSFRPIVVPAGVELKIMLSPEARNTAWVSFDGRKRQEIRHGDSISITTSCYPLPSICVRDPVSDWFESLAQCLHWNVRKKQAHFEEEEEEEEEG

[3] = target: T3, PARP10 (Homo sapiens, UniProt Q53GL7); assay: […]NADP+ binding to immobilized protein (TLC); also inhibition of auto-MARylation
T3 construct: GST-PARP10
T3 sequence (Q53GL7 1-1025): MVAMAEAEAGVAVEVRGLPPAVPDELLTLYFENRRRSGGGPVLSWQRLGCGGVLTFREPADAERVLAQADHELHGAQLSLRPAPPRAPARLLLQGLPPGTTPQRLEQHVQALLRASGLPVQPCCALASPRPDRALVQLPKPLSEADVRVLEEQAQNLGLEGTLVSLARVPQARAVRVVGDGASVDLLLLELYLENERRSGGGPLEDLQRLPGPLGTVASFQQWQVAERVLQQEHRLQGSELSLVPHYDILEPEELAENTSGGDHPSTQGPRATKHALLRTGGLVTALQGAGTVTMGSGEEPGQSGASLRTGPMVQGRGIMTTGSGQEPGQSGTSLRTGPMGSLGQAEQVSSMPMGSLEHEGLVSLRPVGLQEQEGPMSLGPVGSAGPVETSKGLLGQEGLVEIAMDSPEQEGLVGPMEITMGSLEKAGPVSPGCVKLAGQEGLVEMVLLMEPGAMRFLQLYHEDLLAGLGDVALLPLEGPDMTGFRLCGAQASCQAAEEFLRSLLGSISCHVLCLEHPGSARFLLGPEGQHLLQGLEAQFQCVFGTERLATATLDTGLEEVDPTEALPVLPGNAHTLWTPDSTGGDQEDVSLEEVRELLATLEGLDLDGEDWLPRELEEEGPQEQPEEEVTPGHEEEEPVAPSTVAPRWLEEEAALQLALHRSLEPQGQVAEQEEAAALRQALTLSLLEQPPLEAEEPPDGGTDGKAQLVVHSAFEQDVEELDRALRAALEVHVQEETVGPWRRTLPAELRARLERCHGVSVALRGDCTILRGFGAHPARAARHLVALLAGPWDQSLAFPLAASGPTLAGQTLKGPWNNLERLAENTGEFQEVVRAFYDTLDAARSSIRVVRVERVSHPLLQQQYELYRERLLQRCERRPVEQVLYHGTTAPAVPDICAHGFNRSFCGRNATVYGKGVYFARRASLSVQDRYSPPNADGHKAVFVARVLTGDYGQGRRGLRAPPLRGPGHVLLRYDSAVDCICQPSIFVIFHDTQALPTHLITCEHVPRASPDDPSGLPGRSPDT

[4] = target: T4, PARP2 (Homo sapiens, UniProt Q9UGN5); assay: […]NADP+ binding to immobilized protein (TLC); also inhibition of auto-PARylation
T4 construct: HIS-PARP2

[5] = target: T1, PARP1; assay: in vitro auto-PARylation, western blot and […]NAD+ autoradiography; format: biochemical; parameters: HIS-PARP1
Target sequence in this assay (P09874 2-1014): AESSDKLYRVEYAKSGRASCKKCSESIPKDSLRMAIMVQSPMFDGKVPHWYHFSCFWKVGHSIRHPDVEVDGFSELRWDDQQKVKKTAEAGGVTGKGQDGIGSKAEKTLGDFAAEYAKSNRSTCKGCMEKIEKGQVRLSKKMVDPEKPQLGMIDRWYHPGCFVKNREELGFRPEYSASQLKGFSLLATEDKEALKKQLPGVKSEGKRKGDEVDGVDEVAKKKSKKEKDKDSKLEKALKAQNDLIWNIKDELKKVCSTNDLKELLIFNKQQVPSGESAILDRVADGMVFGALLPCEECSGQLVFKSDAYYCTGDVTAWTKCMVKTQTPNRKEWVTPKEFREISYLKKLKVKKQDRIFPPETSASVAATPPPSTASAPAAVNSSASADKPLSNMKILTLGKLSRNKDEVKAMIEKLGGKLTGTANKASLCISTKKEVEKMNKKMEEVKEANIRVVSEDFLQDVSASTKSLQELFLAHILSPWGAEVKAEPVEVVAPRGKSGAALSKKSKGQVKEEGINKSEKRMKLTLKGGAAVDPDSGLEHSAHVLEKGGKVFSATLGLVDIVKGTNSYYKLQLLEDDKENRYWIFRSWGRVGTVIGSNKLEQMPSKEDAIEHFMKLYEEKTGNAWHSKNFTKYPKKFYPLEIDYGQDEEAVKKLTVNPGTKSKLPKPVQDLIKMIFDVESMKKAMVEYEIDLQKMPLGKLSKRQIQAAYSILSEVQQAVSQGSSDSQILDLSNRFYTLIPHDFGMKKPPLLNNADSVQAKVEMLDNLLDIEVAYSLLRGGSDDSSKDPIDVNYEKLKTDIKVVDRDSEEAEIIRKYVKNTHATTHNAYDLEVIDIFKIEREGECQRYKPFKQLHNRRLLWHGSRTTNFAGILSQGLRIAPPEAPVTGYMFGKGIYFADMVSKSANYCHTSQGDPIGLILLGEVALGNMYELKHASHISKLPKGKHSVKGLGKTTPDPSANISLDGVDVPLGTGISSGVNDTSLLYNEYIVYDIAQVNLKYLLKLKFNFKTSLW

[6] = target: T3, PARP10; assay: in vitro auto-MARylation, autoradiography; format: biochemical

T4 sequence (Q9UGN5 whole entry): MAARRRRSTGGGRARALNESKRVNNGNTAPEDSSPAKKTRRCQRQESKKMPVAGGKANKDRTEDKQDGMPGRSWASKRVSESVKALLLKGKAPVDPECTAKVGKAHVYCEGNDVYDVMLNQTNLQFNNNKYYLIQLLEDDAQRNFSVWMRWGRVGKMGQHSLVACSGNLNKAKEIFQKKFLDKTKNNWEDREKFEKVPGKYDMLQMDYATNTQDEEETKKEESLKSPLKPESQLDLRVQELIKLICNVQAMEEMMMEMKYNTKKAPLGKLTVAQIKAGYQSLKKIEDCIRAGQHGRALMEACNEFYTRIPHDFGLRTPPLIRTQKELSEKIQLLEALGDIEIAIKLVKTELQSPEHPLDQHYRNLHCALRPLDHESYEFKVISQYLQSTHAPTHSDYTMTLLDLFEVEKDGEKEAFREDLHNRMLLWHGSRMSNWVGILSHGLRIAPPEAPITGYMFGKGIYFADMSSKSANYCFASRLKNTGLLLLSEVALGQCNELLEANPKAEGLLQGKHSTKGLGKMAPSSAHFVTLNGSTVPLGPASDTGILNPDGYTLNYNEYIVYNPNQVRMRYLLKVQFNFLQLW

Kd [1] [µM]	Compound	recombinant enzyme reaction, product confirmed by mass spectrometry [2]	[32P]NADP+ binding to immobilized protein (TLC); also inhibition of auto-MARylat [3]	[32P]NADP+ binding to immobilized protein (TLC); also inhibition of auto-PARylat [4]	in vitro auto-PARylation, western blot and [32P]NAD+ autoradiography [5]	in vitro auto-MARylation, autoradiography [6]
~39	NC(=O)c1ccc[n+]([C@@H]2O[C@H](COP(=O)(O)OP(=O)(O)OC[C@H]3O[C@@H](n4cnc5c(N)ncnc54)[C@H](OP(=O)(O)O)[C@@H]3O)[C@@H](O)[C@H]2O)c1 [NADP^+]	Formation of NADP^+ by our recombinant protein was confirmed by mass spectrometry	found that PARP1, PARP2, and PARP10 indeed were able to bind NADP^+ (Fig. 3a)	found that PARP1, PARP2, and PARP10 indeed were able to bind NADP^+ (Fig. 3a)	–	–
–	NC(=O)c1ccc[n+]([C@@H]2O[C@H](COP(=O)([O-])OP(=O)(O)OC[C@H]3O[C@@H](n4cnc5c(N)ncnc54)[C@H](O)[C@@H]3O)[C@@H](O)[C@H]2O)c1 [NAD^+]	recombinant NADK protein that can transfer phosphate moiety from ATP to NAD^+ to synthesize NADP^+	–	–	with NAD^+, PARP1 quickly synthesized PAR chains and autoPARylated itself	Auto-MARylation of PARP10 was examined by autoradiography
